Here are results for 34 substances from patent US12044680B2, “Peptide exchange system and method” (priority 2016, dated 2024).

Like-named read-outs stand apart in the source and are kept apart here. Ends that are not written are not given here. * marks the point of attachment. DNP = dinitrophenol (DNP) tag on lysine, O=[N+]([O-])c1ccc(*)c([N+](=O)[O-])c1; Dnp = O=[N+]([O-])c1ccc(*)c([N+](=O)[O-])c1

Assay [1] has as its target T1, HLA-A*02:01 tetramers with exiting peptide ILKEKK(DNP)VHGV (Homo sapiens, UniProt P04439, D140Y/D185E/D98H/E176V/E277Q/G131W/G231S/I119V/I121R/I166T/I218V/L300P/L318F/N151K/N90K/P208A/P217A/Q86G/Q94H/R138H/R169H/T345S).
T1 construct: prepared as known in the art, for instance by deletion of the transmembrane domain and the cytoplasmic domain; made in house
Put plainly: HLA-A*02:01 peptide exchange quantitation. Format: binding. Conditions: entering peptide 20 μM final, 4 hours; HLA-A*02:01 tetramer. Here is the method:
Peptide Exchange Procedure: 50 μL of the tetramer solution is combined with 1 μL of peptide exchange factor, such as glycyl methionine, (resulting in a final peptide exchange factor concentration of 5-20 mM) and 1 μL of the peptide solution and the resulting solution was mixed, then incubated at room temperature for four hours.
Sandwich magnetic bead immunoassay: 20 μL capture beads is pipetted into wells 1-4 on a 96-well plate. 5 μL assay buffer is pipetted into well 2. 5 μL of exchanged tetramer is pipetted into well 4. Additional exchanged tetramers may be pipetted into wells 5 and up. The plate is protected from light and shaken for 45 min at 550 rpms/min. 150 μL of assay buffer is dispensed into each well. The plate is placed on a plate magnet and the beads are permitted to sediment for at least 5 minutes.
Separately, a preparation of the FITC-conjugated anti-tag antibody is prepared at 10 μg/mL. 25 μL of the FITC-conjugated anti-tag antibody is pipetted into each well except well 1, and the plate is again protected from light and shaken for 45 min at 550 rpms/min.
150 μL of assay buffer is dispensed into each well, and the plate is placed on a plate magnet. The beads are permitted to sediment for at least 5 minutes. The beads are resuspended in sheath fluid and transferred to labeled flow cytometer tubes (referred to herein by the number of the well they are drawn from), which are then analyzed on a flow cytometer.
Flow Cytometry Analysis: Unused magnetic beads are used to set FSC (forward-scattered light) and SSC (side-scattered light) voltages and gains such that a live gate selects single beads and excludes doublets and larger clumps, see FIG. 1A. […] Tube 1 is run to perform compensation in FL1 in order to eliminate fluorochrome interference in the FITC channel, see FIG. 1C. The FL1 MFI is set to the first log decade, close to that obtained with beads only. Tube 2, which contains beads that have captured no tetramer and therefore no tagged peptide, is run to calibrate the level for 0% tagged peptide, i.e. 100% peptide exchange (see FIG. 1D). In the exemplary data provided here, the MFI is 0.287. Tube 3, which contains a solution where all tetramers display the original tagged peptide, is run to calibrate the level for 100% tagged peptide, i.e. 0% peptide exchange (see FIG. 1E). In the exemplary data provided here, the MFI is 20.4. Tubes 4 and up are run to evaluate the samples. Peptide exchanged tetramers will display various quantities of tagged peptides, depending on their binding affinities to HLA-A*02:01 molecules. Therefore, the FL1 MFI measured will be intermediary between MFI values obtained with tubes 2 and 3. See FIG. 1F, where in the exemplary data provided here, the MFI is 9.37.
(§1) Peptide exchange data were obtained after incubating peptides (20 μM final) with tetramer for 4 hours, then followed by capture with anti HLA-ABC beads and staining with an anti-DNP FITC antibody.

For assay [2], the target named is T2, HLA-A*24:02 tetramers with exiting peptide TFQRK(DNP)PAAF (Homo sapiens, UniProt P04439, D101N/D140Y/D185E/E176V/E190D/F33S/G103R/G107R/I119L/I121M/I306V/K335N/L105A/L180Q/L300P/N151K/N90K/Q86E/Q94H/R106L/R138H/R89G/T104I/T345S/V100E/W191G/Y123F).
T2 construct: prepared as known in the art, for instance by deletion of the transmembrane domain and the cytoplasmic domain; made in house
Put plainly: HLA-A*24:02 peptide exchange quantitation. Type of assay: binding. Conditions: competing peptide 20 μM final, 4 hours; HLA-A*24:02 tetramer. The procedure:
as §1

The target of assay [3] is T3, HLA-A*02:01 tetramers (Homo sapiens, UniProt P04439, D140Y/D185E/D98H/E176V/E277Q/G131W/G231S/I119V/I121R/I166T/I218V/L300P/L318F/N151K/N90K/P208A/P217A/Q86G/Q94H/R138H/R169H/T345S).
T3 construct: prepared as known in the art, for instance by deletion of the transmembrane domain and the cytoplasmic domain; made in house
Put plainly: Comparison of exiting peptides: peptide exchange on HLA-A*02:01 tetramers against […]. Format: binding. Particulars: GM 10 mM; YLLEFTPPV at 10 and 1 μg/mL; compared with ILKEK(DNP)VHGV. Here is the method:
Peptide exchange was performed using two HLA-A*02:01 tetramers at 280 μg/mL made with peptides ILKEKK(DNP)VHGV (SEQ ID NO: 3) and ILKEK(DNP)VHGV (SEQ ID NO: 4). […] Tetramers were captured with beads conjugated with an anti HLA-ABC specific antibody at 10 μg/mL.

For assay [4], the target named is T4, HLA-A*02:01 Tetramers containing exiting peptide ILKEKK(DNP)VHGV (Homo sapiens, UniProt P04439, D140Y/D185E/D98H/E176V/E277Q/G131W/G231S/I119V/I121R/I166T/I218V/L300P/L318F/N151K/N90K/P208A/P217A/Q86G/Q94H/R138H/R169H/T345S).
T4 construct: prepared as known in the art, for instance by deletion of the transmembrane domain and the cytoplasmic domain; made in house
In words: Quantified peptide exchange assay of vaccine and individual peptide. Format: binding. Here is the method: Quantified Peptide Exchange Assay: HLA-A*02:01 Tetramers were prepared containing exiting peptide ILKEKK(DNP)VHGV (SEQ ID NO: 3). Peptide exchange was performed against (a) the peptide prepared individually in a buffered solution or (b) in the DPX-Survivac vaccine prepared in an aqueous formulation. HLA-A*02:01 tetramer, and peptide exchange factor glycylmethionine were mixed with each peptide to be tested. Peptide exchange was then quantified by the flow cytometric sandwich immunoassay using magnetic capture beads.
Comparison of Peptide Exchange Assay to T2 HLA-A2 Shift assay: The peptide exchange assay described herein and the T2 HLA-A2 shift assay were conducted on various amounts of peptide per reaction. The results are presented in FIGS. 12D (T2 HLA-A2 shift assay) and 12E (peptide exchange assay), with the three independent repeats shown in diamonds, squares, and triangles. The T2 Shift assay provides a high degree of linearity when applied to the samples containing 10 μg/reaction to 110 μg/reaction of SurA2.M peptide.

The target in assay [5] is T5, H-2 Kb tetramers (Mus musculus, UniProt P01901).
T5 construct: prepared as known in the art, for instance by deletion of the transmembrane domain and the cytoplasmic domain; made in house
T5 sequence (P01901 22-305 limits assumed): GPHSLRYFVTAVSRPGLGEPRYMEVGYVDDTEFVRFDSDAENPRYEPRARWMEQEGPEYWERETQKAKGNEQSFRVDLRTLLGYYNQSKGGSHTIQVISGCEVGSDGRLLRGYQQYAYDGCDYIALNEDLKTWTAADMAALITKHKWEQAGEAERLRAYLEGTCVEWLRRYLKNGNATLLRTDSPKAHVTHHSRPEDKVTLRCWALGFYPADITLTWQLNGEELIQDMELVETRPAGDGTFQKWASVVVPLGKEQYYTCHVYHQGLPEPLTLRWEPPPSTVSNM
Put plainly: Selection of exiting peptide: peptide exchange on H-2 Kb tetramers with competing peptides. Format: binding, murine. Particulars: H-2 Kb tetramers 280 μg/mL; competing peptides 10 μg/mL. Here is the method:
Peptide exchange was performed using two H-2 Kb tetramers at 280 jig/mL that were made with peptides MTYK(DNP)FPVT (SEQ ID NO: 1) and YTVK(DNP)FALV (SEQ ID NO: 2). Exchange was performed in the presence of competing peptides at 10 μg/mL. Tetramers were captured with beads conjugated with an anti H-2 Kb specific antibody. Detection was performed with a FITC-conjugated anti-DNP antibody at 10 μg/mL. The results are depicted in FIG. 6, where the exiting peptides are labeled as follows: […]

The target in assay [6] is H-2 Kb tetramers (PE, APC or BV421) with exiting peptide TFQRK(DNP)PAAF (Mus musculus, UniProt P01901). Particulars: glycyl-methionine, 4 hours room temperature; for Exchange rate, APC: H-2 Kb APC tetramer; for Exchange rate, BV421: H-2 Kb BV421 tetramer; for Exchange rate, PE: H-2 Kb PE tetramer. The procedure: The mixtures were incubated for 4 hours at room temperature, protected from light.
20 μL of magnetic capture beads were added to wells of a v-bottom 96-well plate for each tested peptide plus wells for control samples. Each test well received 5 μL from the peptide exchange samples. The plate was shaken for 45 minutes at 550 rpm, room temperature, protected from light. After bead rinse, wells received 25 μL of 1× exiting peptide antibody. The plate was shaken for 45 minutes at 550 rpm, room temperature, protected from light. Beads were rinsed, resuspended in 1× assay buffer and run on a FC500 Flow Cytometer. Single beads were gated on FSC vs. SSC and MFI were measured on 500 events per test. Peptide exchange rate was calculated using a calibration curve generated with MFI values from controls.

For ALALEVGEL, in assay [1], the “% peptide exchange” value was determined as 85.1%.
The same measure, in the same setting: next, ALLAVGATK: 25.7%.
As for AMAPRTLLL, the “% peptide exchange” value in assay [2] is 81.62%.
Same read-out and setting: next, ATDALMTGY: 7.74%.
As to ATVQGQNLK, the “% peptide exchange” value in assay [1] was found to be 27.9%.
AVLDGLLSL: the “% peptide exchange” value in assay [1] stood at 90.7%.
As to CINGVCWTV, the “% peptide exchange” value in assay [1] came to 85.3%.
The same measure, in the same setting: next, CSLWNGPHL: 55.2%; EYILSLEEL: 24.2%.
Take FLSELTQQL: in assay [2], the “% peptide exchange” value came out at 23.65%.
On to FLYDDNQRV, for which, in assay [1], the “% peptide exchange” value turned out to be 91.2%.
As to GLADQLIHL, the “% peptide exchange” value in assay [2] was 0.86%; in assay [1], 91.4%.
GLAVVTHGL: in assay [1], the “% peptide exchange” value is given as 91.0%.
With GYSLKLSKL, the “% peptide exchange” value in assay [2] was found to be 37.93%.
As to ILKEKK(Dnp)VHGV, in assay [3], the “Performance of the exiting peptide in peptide exchange” value is “performs better in peptide exchange”.
In the case of IMQIMPYGC, in assay [1], the “% peptide exchange” value worked out at 59.9%.
Turning to IMQLMPFGC, in assay [1], the “% peptide exchange” value is reported as 40.9%.
The same measure, in the same setting: next, IRLRPGGKK: 25.0%.
In the case of IYSTVASSL, the “% peptide exchange” value in assay [2] worked out at 100.98%.
Turning to LMLGEFLKL [SurA2.M], the “Peptide exchange rate, individually in buffered solution versus in the vaccine” value in assay [4] (three independent repeats, Student's t-test at p<0.05) is “not statistically distinguishable”. Besides, in assay [4] (various amounts of peptide per reaction), the “Upper limit of quantification of the peptide exchange assay” value is reported as “below 0.2 μg/reaction”.
As to LNMADKKET, the “% peptide exchange” value in assay [2] was 10.32%.
In the case of LTLGEFLKL, the “% peptide exchange” value in assay [1] was found to be 43.6%.
Consider MTYK(DNP)FPVT, for which the “Exchangeability of tetramers built with the exiting peptide” value in assay [5] is reported as “allowed exchange with a wide range of peptides”.
With RAHYNIVTF, the “% peptide exchange” value in assay [2] amounted to 85.58%.
For RIKDFLRNL, the “% peptide exchange” value in assay [1] is recorded as 34.0%.
As to RVRAYTYSK, the “% peptide exchange” value in assay [2] was 10.32%.
Turning to RYMRWTYRF, in assay [2], the “% peptide exchange” value is 101.29%.
For SIYRYYGL [Reference Peptide], in assay [6] (Reference Peptide 2 μM), the “Exchange rate, APC” value is given as 97.08; the “Exchange rate, BV421” value amounted to 90.56; the “Exchange rate, PE” value came to 92.72. Further, in assay [6] (Reference Peptide 20 μM), the “Exchange rate, APC” value came to 99.13; the “Exchange rate, BV421” value is 97.34; the “Exchange rate, PE” value was determined as 100.
For the substance SLPPPGTRV, the “% peptide exchange” value in assay [1] was determined as 86.6%.
Consider SYVPSAEQI, for which the “% peptide exchange” value in assay [1] came to 25.0%.
Consider WMHHNMDLI, for which the “% peptide exchange” value in assay [1] is 89.2%.
For the substance WMHKVPASL, the “% peptide exchange” value in assay [1] amounted to 87.9%.
The same measure, in the same setting: next, YLLEFTPPV: 91.9%.
In the case of YTVK(DNP)FALV, the “Exchangeability of tetramers built with the exiting peptide” value in assay [5] is on record as “not possible”.
